System: cell line of human leucemic granulocytes (PMN)
Experiment: Respiratory burst: zymosan-triggered release of superoxide anions (ROS) measured with Luminol, with cell numbers
Assay type: cell-based
Settings: for Cell numbers / Released ROS: compared with the standard (=100), average of triplicate determination; for Released ROS: zymosan-triggered, Luminol
Text: In the course of cutaneous inflammations, leukocytes, such as, for example, the polymorphonuclear neutrophilic granulocytes (PMN), are stimulated by peptides, such as, for example, cytokines, to emit messenger substances, such as, for example, leucotriene, which are released from activated or necrotic cells in the dermis. These activated PMNs release not only proinflammatory cytokins, leucotrienes and proteases, but also ROS, such as, for example, superoxides and hypochlorite anions, which have the task of destroying pathogenic microbes or fungi which have penetrated it. This activity of the PMNs during inflammation is known as respiratory burst and can lead to additional tissue damage. To investigate to what extent the amide is able to prevent or reduce respiratory burst, a cell line of human leucemic granulocytes of these PMNS was incubated together with the test substances at 37° C. from 5% by volume of CO2. After the respiratory burst had been triggered by adding a yeast extract (zymosan) to the cell solution, the release of superoxide anions was determined by means of their reaction with Luminol. The values given are the cell numbers and the amount of released ROS in relative percentages compared with the standard as an average value of a measurement series with triplicate determination.

SMILES: COc1ccc(NC(=O)C2CC(C)CCC2C(C)C)cc1 (centres unmarked) [Menthane carboxylic acid-N-(4-methoxy-phenyl)-amide]
- Cell numbers (0.001 % b.w. active): 104 ± 1 relative percentages
- Released ROS (0.001 % b.w. active): 37 ± 25 relative percentages
- Cell numbers (0.01 % b.w. active): 94 ± 3 relative percentages
- Released ROS (0.01 % b.w. active): 9 ± 4 relative percentages
- Cell numbers (0.1 % b.w. active): 93 ± 1 relative percentages
- Released ROS (0.1 % b.w. active): 8 ± 4 relative percentages
- Damage to the granulocytes (summary in words of Table 1): without damaging the granulocytes
- Effect on the respiratory burst of human granulocytes (summary in words of Table 1): strong inhibiting effect

Source: US9675568B2, “Pharmaceutical compositions” (Symrise AG, priority 2012, dated 2017)
